# From paper PMC8591741 (ACS Medicinal Chemistry Letters, 2021)
# “Also recorded” adds a separate entry of the source.
# Key:
# HCV gt1a replicon = assay: HCV replicon assay, gt1a; format: cell-based, hepatitis C virus
# HCV gt1b replicon = assay: HCV replicon assay, gt1b; format: cell-based, hepatitis C virus; conditions: for potency against gt1b compared with daclatasvir (1), in words: vs 1
structure (smiles),measurement,setting,value
COC(=O)N[C@H](C(=O)N1CC2(C[C@H]1c1ncc(-c3ccc(-c4ccc(-c5cnc([C@@H]6CC[C@H]7CCC[C@H](N(C)C)C(=O)N76)[nH]5)cc4)cc3)[nH]1)OCCO2)C(C)C [Compound 13],less potent than 5 against gt1a,HCV gt1a replicon; vs 5,16 fold
COC(=O)N[C@H](C(=O)N1CCC[C@H]1c1ncc(-c2ccc(-c3ccc(-c4cnc([C@@H]5CC[C@H]6CCC[C@@H](NC(=O)OC)C(=O)N65)[nH]4)cc3)cc2)[nH]1)C(C)C [Compound 4],gt1b potency regained compared with 2,HCV gt1b replicon; vs 2,~2 fold
same,gt1a potency regained compared with 2,HCV gt1a replicon; vs 2,~27 fold
COC(=O)N[C@H]1CCC[C@@H]2CC[C@@H](c3ncc(-c4ccc(-c5ccc(-c6cnc([C@@H]7CCCN7C(=O)[C@@H](NC(=O)OC)C(C)C)[nH]6)cc5)cc4)[nH]3)N2C1=O [Compound 5],"potency against gt1b compared with daclatasvir (1), in words",HCV gt1b replicon,nearly equipotent; also recorded: essentially equipotent
same,times less potent against gt1a than 1,HCV gt1a replicon; vs daclatasvir (1),~6
COC(=O)N[C@H]1CCC[C@H]2CC[C@@H](c3ncc(-c4ccc(-c5ccc(-c6cnc([C@@H]7CCCN7C(=O)[C@@H](NC(=O)OC)C(C)C)[nH]6)cc5)cc4)[nH]3)N2C1=O [Compound 2],"potency against gt1b compared with daclatasvir (1), in words",HCV gt1b replicon,decreased slightly
same,potency decrease against gt1a compared with daclatasvir (1),HCV gt1a replicon; vs 1,~221 fold
